# Source: patent publication US20250009713A1 (priority 2021, published 2025)
# “Also recorded” adds a separate entry of the source. Like-named read-outs stand apart in the source and are kept apart here.
# Tests used:
# [1] = test system: SARS-COV-2 US-WA1/2020 (NR-52281); experiment: qRT-PCR of viral genome copies released into culture medium, Calu-3 cells; format: cell-based
# [2] = test system: SARS-COV-2 Japan/TY7-503/2021-Brazil_P.1 (NR-54982); experiment: as above; format: cell-based
# [3] = test system: SARS-COV-2 US-WA1/2020 (NR-52281); experiment: qRT-PCR of viral genome copies released into culture medium, Vero cells; format: cell-based
# [4] = test system: SARS-COV-2 Japan/TY7-503/2021-Brazil_P.1 (NR-54982); experiment: as above; format: cell-based
# [5] = test system: SARS-COV-2 US-WA1/2020 (NR-52281); experiment: plaque assay of infectious virus released into culture medium, Calu-3 cells; format: cell-based
# [6] = test system: SARS-COV-2 Japan/TY7-503/2021-Brazil_P.1 (NR-54982); experiment: as above; format: cell-based
# [7] = test system: SARS-COV-2 US-WA1/2020 (NR-52281); experiment: plaque assay of infectious virus released into culture medium, Vero cells; format: cell-based
# [8] = test system: SARS-COV-2 Japan/TY7-503/2021-Brazil_P.1 (NR-54982); experiment: as above; format: cell-based
# [9] = test system: six strains of SARS-COV-2; experiment: qRT-PCR assay, summary over six strains and two cell types; format: cell-based
# [10] = test system: six strains of SARS-COV-2; experiment: plaque assay, summary over six strains and two cell types; format: cell-based
# [11] = test system: SARS-COV-2 (2019n-COV/USA-WA1/2020); format: in vivo, K18-hACE2 mice
# [12] = test system: SARS-COV-2 (2019n-COV/USA-WA1/2020); format: in vivo, K18-hACE2 mice; conditions: for reduction of viral load in lung: 7 days, Day 7
# [13] = test system: SARS-COV-2 (2019n-COV/USA-WA1/2020); format: in vivo, K18-hACE2 mice; conditions: for reduction of infectious virus recovered from lung tissue: 7 days, Day 7, P<0.001
# [14] = test system: IL-6; IL-1a; IL-1B; TNFα; TGFβ; MCP-1; format: in vivo, K18-hACE2 mice; conditions: 7 days post infection
# [15] = Severe acute respiratory syndrome coronavirus 2, virus WA1, m.o.i 0.1, BIT225 added 1 hour pre-infection, 4 days post infection
# [16] = virus WA1, log-logistic curve fit
# [17] = Severe acute respiratory syndrome coronavirus 2, virus BR, m.o.i 0.1, BIT225 added 1 hour pre-infection, 4 days post infection
# [18] = virus BR, log-logistic curve fit
# [19] = Severe acute respiratory syndrome coronavirus 2, m.o.i 0.1, BIT225 added 1 hour pre-infection, 4 days post infection
# [20] = 300 mg/kg twice daily, day 5 (Experiment 3) or Day 12 (Experiment 2), 11 mice
# [21] = Experiment 1, 100 mg/kg or 300 mg/kg for 7 days, vs vehicle
compound,measurement,setting,value
"Cn1cc(-c2cccc3cc(C(=O)NC(=N)N)ccc23)cn1 [BIT225, N-carbamimidoyl-5-(1-methyl-1H-pyrazol-4-yl)-2-naphthamide]",EC50,[1]; [15],2.55 µM
same,Max. Response (d),[1]; [16],2.41 log10
same,Slope (b),[1]; [16],1.38
same,EC50,[2]; [17],4.64 µM
same,Max. Response (d),[2]; [18],2.53 log10
same,Slope (b),[2]; [18],1.12
same,EC50,[3]; [15],2.53 µM
same,Max. Response (d),[3]; [16],3.29 log10
same,Slope (b),[3]; [16],1.79
same,EC50,[4]; [17],4.03 µM
same,Max. Response (d),[4]; [18],3.53 log10
same,Slope (b),[4]; [18],1.13
same,EC50,[5]; [19],3.43 µM
same,Max. Response (d),[5]; log-logistic curve fit,3.38 log10
same,Slope (b),[5]; log-logistic curve fit,1.31
same,EC50,[6]; [17],5.79 µM
same,Max. Response (d),[6]; [18],3.39 log10
same,Slope (b),[6]; [18],1.36
same,EC50,[7]; [19],4.09 µM
same,Max. Response (d),[7]; log-logistic curve fit,6.40 log10
same,Slope (b),[7]; log-logistic curve fit,1.45
same,EC50,[8]; [17],6.36 µM
same,Max. Response (d),[8]; [18],6.39 log10
same,Slope (b),[8]; [18],1.67
same,EC50,"[9]; Severe acute respiratory syndrome coronavirus 2, read-out: EC50 estimates, range",2.5 to 4.8 µM
same,EC50,"[9]; Severe acute respiratory syndrome coronavirus 2, qRT-PCR assay, mean over six strains and two cell types, read-out: EC50, mean",3.7 µM
same,EC50,"[10]; Severe acute respiratory syndrome coronavirus 2, read-out: EC50, range",3.4 to 7.9 µM
same,EC50,"[10]; Severe acute respiratory syndrome coronavirus 2, plaque assay, mean over six strains and two cell types, read-out: EC50, mean",6.2 µM
same,survival to day 5 (Experiment 3) or Day 12 (Experiment 2),"[11]; 11 mice, 300 mg/kg twice daily",all survived
same,difference in body weight changes between the two BIT225 dosing levels,"[11]; Experiment 1, 100 mg/kg vs 300 mg/kg twice daily, 7 days",no significant difference
same,"difference between group-mean body weight changes, vehicle lower than combined BIT225 groups","[11]; Experiment 1, day 5, P=0.01",3.8%
same,"difference between group-mean body weight changes, vehicle lower than combined BIT225 groups","[11]; Experiment 1, day 6, P=0.001",6.4%
same,mice with body weights greater than their pre-infection weights,"[11]; Experiment 1, day 7, 100 mg/kg or 300 mg/kg twice daily",all 10
same,"difference between group-mean body weight changes, vehicle lower than combined BIT225 groups","[11]; Experiment 1, day 7, 95% CI [5.6-10.7], P=0.001",8.1%
same,survival and weight gain to day 12,"[11]; Experiment 2, 300 mg/kg twice daily for 12 days, n=7, all vehicle mice died by day 9, P<0.001 log-rank, 300 mg/kg",all mice survived and continued to gain weight; also recorded: all seven mice in the BIT225 group survived
same,health and weight change to Day 5,"[11]; Experiment 3, 300 mg/kg twice daily, 5 days, n=4",remained healthy and gained weight to Day 5
same,"survival, health and weight gain through day 12","[11]; Experiment 4, 300 mg/kg twice daily starting 24 h post-infection, n=5, 300 mg/kg",remained healthy and continued gain weight as per age expectations through to day 12; also recorded: survived to Day 12
same,"survival, health and weight gain through day 12","[11]; Experiment 4, 300 mg/kg twice daily starting 24 h pre-infection, n=5, 300 mg/kg",remained healthy and continued gain weight as per age expectations through to day 12; also recorded: survived to Day 12
same,mice that died (day 11),"[11]; Experiment 4, 300 mg/kg twice daily starting 48 h post-infection, n=5, 300 mg/kg",One of the five; also recorded: one mouse
same,mice that continued to gain body weight,"[11]; across three experiments, 12 hourly oral doses of BIT225 (100 or 300 mg/kg), intranasal",21 out of 21
same,lung viral loads (qRT-PCR),[12]; [20],at or below the limits of detection
same,viral load in serum,[12]; [21],significant reductions
same,reduction of viral load in lung,"[12]; Experiment 1, 100 mg/kg twice daily, vs vehicle, P<0.001",approximately 2 log 10
same,reduction of viral load in lung,"[12]; Experiment 1, 300 mg/kg twice daily, vs vehicle",approximately 3.5 log 10
same,lung plaque counts,[13]; [20],< 200 mL⁻¹
same,infectious virus in serum,[13]; [21],significant reductions
same,reduction of infectious virus recovered from lung tissue,"[13]; Experiment 1, 100 mg/kg twice daily",approximately 2000 PFU/mL
same,reduction of infectious virus recovered from lung tissue,"[13]; Experiment 1, 300 mg/kg twice daily",~4000 PFU/mL
same,"IL-6 level, statistically significant (P<0.05) lower than vehicle control",[14]; 100 mg/kg dose group,exception
same,mean and median cytokine concentrations relative to vehicle control group,[14]; high-dose BIT225 group (300 mg/kg),less than half
same,"end-of-treatment levels of IL-6, IL-1a, IL-1B, TNFα, TGFβ and MCP-1","[14]; lung and serum, 100 or 300 mg/kg twice daily, vs vehicle control",reduced
